Test results as given in US10543212B2, “Substituted amines for treating cardiac diseases” (Cardurion Pharmaceuticals, LLC, priority 2017, dated 2020).

What follows are molecules tested against T1, Full-length, GST-tagged, human CaMKIIδ (Homo sapiens, UniProt Q13557) (assay: CaMKIIδ binding assay (TR-FRET with BODIPY-labeled probe ligand)). Settings: Table 2; CaMKIIδ binding assay, activity given as class A/B/C.
T1 construct: Full-Length, Glutathione-S-Transferase(GST)-Tagged, Human CaMKIIδ was purchased from Carna Biosciences; purchased Carna Biosciences 02-111
T1 sequence (Q13557 1-478 isoform Q13557-12): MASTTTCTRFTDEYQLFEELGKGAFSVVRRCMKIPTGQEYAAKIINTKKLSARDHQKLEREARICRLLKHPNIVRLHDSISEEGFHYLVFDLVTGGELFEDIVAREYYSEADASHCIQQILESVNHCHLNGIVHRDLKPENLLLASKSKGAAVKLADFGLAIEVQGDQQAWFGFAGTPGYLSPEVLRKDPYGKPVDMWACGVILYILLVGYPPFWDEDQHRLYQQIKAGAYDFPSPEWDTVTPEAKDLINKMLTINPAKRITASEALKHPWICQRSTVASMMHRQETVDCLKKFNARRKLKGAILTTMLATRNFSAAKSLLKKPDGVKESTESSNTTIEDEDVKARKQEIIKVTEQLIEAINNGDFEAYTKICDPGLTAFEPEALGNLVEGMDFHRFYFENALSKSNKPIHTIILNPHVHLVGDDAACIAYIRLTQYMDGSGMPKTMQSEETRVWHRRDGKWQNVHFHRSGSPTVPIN
Method in brief: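 Compounds were tested as 4-fold, eight-point series for 1 hr at room temperature, and IC50 was obtained by logistic fitting against a 3 μM parent-compound control. Signal came from displacement of a 300 nM BODIPY ligand from 0.5 nM GST-CaMKIIδ, detected via Tb-anti-GST in calmodulin/Ca2+ (pH 7.6).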

Structure (SMILES)	IC50 [µM]
C[C@@H](Cn1cnnn1)Oc1cc(-c2cnc(Nc3cn(CC4(CO)COC4)nc3C(F)(F)F)nc2)ccc1Cl [Example 732, (S)-(3-((4-((5-(3-((1-(1H-tetrazol-1-yl)propan-2-yl)oxy)-4-chlorophenyl)pyrimidin-2-yl)amino)-3-(trifluoromethyl)-1H-pyrazol-1-yl)methyl)oxetan-3-yl)methanol]	0.01 to 0.1
C[C@@H](Cn1cnnn1)Oc1cc(-c2cnc(Nc3cn(C4CCCCC4O)nc3C(F)(F)F)nc2)ccc1Cl (stereo partly drawn) [Example 733, 2-(4-((5-(3-(((S)-1-(1H-tetrazol-1-yl)propan-2-yl)oxy)-4-chlorophenyl)pyrimidin-2-yl)amino)-3-(trifluoromethyl)-1H-pyrazol-1-yl)cyclohexan-1-ol]	< 0.01
Cc1noc(C)c1Cn1cc(Nc2ncc(-c3ccc(Cl)c(O[C@@H](C)Cn4cnnn4)c3)cn2)c(C(F)(F)F)n1 [Example 734, (S)-5-(3-((1-(1H-tetrazol-1-yl)propan-2-yl)oxy)-4-chlorophenyl)-N-(1-((3,5-dimethylisoxazol-4-yl)methyl)-3-(trifluoromethyl)-1H-pyrazol-4-yl)pyrimidin-2-amine]	0.01 to 0.1
C[C@@H](Cn1cnnn1)Oc1cc(-c2cnc(Nc3ccnn3C)nc2)ccc1Cl [Example 735, (S)-5-(3-((1-(1H-tetrazol-1-yl)propan-2-yl)oxy)-4-chlorophenyl)-N-(1-methyl-1H-pyrazol-5-yl)pyrimidin-2-amine]	0.01 to 0.1
C[C@@H](Cn1cnnn1)Oc1cc(-c2cnc(Nc3cn(CC(O)CO)nc3C(F)(F)F)nc2)ccc1Cl (stereo partly drawn) [Example 736, 3-(4-((5-(3-(((S)-1-(1H-tetrazol-1-yl)propan-2-yl)oxy)-4-chlorophenyl)pyrimidin-2-yl)amino)-3-(trifluoromethyl)-1H-pyrazol-1-yl)propane-1,2-diol]	< 0.01
COCCn1cc(Nc2ncc(-c3ccc(Cl)c(O[C@@H](C)Cn4cnnn4)c3)cn2)c(C(F)(F)F)n1 [Example 737, (S)-5-(3-((1-(1H-tetrazol-1-yl)propan-2-yl)oxy)-4-chlorophenyl)-N-(1-(2-methoxyethyl)-3-(trifluoromethyl)-1H-pyrazol-4-yl)pyrimidin-2-amine]	0.01 to 0.1
C[C@@H](Cn1cnnn1)Oc1cc(-c2cnc(Nc3cn(CC4CNC(=O)O4)nc3C(F)(F)F)nc2)ccc1Cl (stereo partly drawn) [Example 738, 5-((4-((5-(3-(((S)-1-(1H-tetrazol-1-yl)propan-2-yl)oxy)-4-chlorophenyl)pyrimidin-2-yl)amino)-3-(trifluoromethyl)-1H-pyrazol-1-yl)methyl)oxazolidin-2-one]	< 0.01
C[C@@H](Cn1cnnn1)Oc1cc(-c2cnc(Nc3cn(C4CCCC4)nc3C(F)(F)F)nc2)ccc1Cl [Example 739, (S)-5-(3-((1-(1H-tetrazol-1-yl)propan-2-yl)oxy)-4-chlorophenyl)-N-(1-cyclopentyl-3-(trifluoromethyl)-1H-pyrazol-4-yl)pyrimidin-2-amine]	0.01 to 0.1
C[C@@H](Cn1cnnn1)Oc1cc(-c2cnc(Nc3cc(C(C)(C)C)nn3C)nc2)ccc1Cl [Example 740, (S)-5-(3-((1-(1H-tetrazol-1-yl)propan-2-yl)oxy)-4-chlorophenyl)-N-(3-(tert-butyl)-1-methyl-1H-pyrazol-5-yl)pyrimidin-2-amine]	≥ 0.1
C[C@@H](Cn1cnnn1)Oc1cc(-c2cnc(Nc3cn(Cc4nc5ccccc5c(=O)[nH]4)nc3C(F)(F)F)nc2)ccc1Cl [Example 741, (S)-2-((4-((5-(3-((1-(1H-tetrazol-1-yl)propan-2-yl)oxy)-4-chlorophenyl)pyrimidin-2-yl)amino)-3-(trifluoromethyl)-1H-pyrazol-1-yl)methyl)quinazolin-4(3H)-one]	0.01 to 0.1
Cc1cc(Nc2ncc(-c3ccc(Cl)c(O[C@@H](C)Cn4cnnn4)c3)cn2)n(C(C)C)n1 [Example 742, (S)-5-(3-((1-(1H-tetrazol-1-yl)propan-2-yl)oxy)-4-chlorophenyl)-N-(1-isopropyl-3-methyl-1H-pyrazol-5-yl)pyrimidin-2-amine]	0.01 to 0.1
C[C@@H](Cn1cnnn1)Oc1cc(-c2cnc(Nc3cn(CC(F)F)nc3C(F)(F)F)nc2)ccc1Cl [Example 743, (S)-5-(3-((1-(1H-tetrazol-1-yl)propan-2-yl)oxy)-4-chlorophenyl)-N-(1-(2,2-difluoroethyl)-3-(trifluoromethyl)-1H-pyrazol-4-yl)pyrimidin-2-amine]	0.01 to 0.1
C[C@@H](Cn1cnnn1)Oc1cc(-c2cnc(Nc3cn(CC(O)(C(F)(F)F)C(F)(F)F)nc3C(F)(F)F)nc2)ccc1Cl [Example 744, (S)-2-((4-((5-(3-((1-(1H-tetrazol-1-yl)propan-2-yl)oxy)-4-chlorophenyl)pyrimidin-2-yl)amino)-3-(trifluoromethyl)-1H-pyrazol-1-yl)methyl)-1,1,1,3,3,3-hexafluoropropan-2-ol]	≥ 0.1
C[C@@H](Cn1cnnn1)Oc1cc(-c2cnc(Nc3nc4ccccc4n3C)nc2)ccc1Cl [Example 745, (S)-N-(5-(3-((1-(1H-tetrazol-1-yl)propan-2-yl)oxy)-4-chlorophenyl)pyrimidin-2-yl)-1-methyl-1H-benzo[d]imidazol-2-amine]	≥ 0.1
Cc1cc(Nc2ncc(-c3ccc(Cl)c(O[C@@H](C)Cn4cnnn4)c3)cn2)n(CCC#N)n1 [Example 746, (S)-3-(5-((5-(3-((1-(1H-tetrazol-1-yl)propan-2-yl)oxy)-4-chlorophenyl)pyrimidin-2-yl)amino)-3-methyl-1H-pyrazol-1-yl)propanenitrile]	≥ 0.1
Cc1noc(C)c1Nc1ncc(-c2ccc(Cl)c(O[C@@H](C)Cn3cnnn3)c2)cn1 [Example 747, (S)-N-(5-(3-((1-(1H-tetrazol-1-yl)propan-2-yl)oxy)-4-chlorophenyl)pyrimidin-2-yl)-3,5-dimethylisoxazol-4-amine]	0.01 to 0.1
C[C@@H](Cn1cnnn1)Oc1cc(-c2cnc(Nc3snnc3-c3ccc(Cl)cc3)nc2)ccc1Cl [Example 748, (S)-N-(5-(3-((1-(1H-tetrazol-1-yl)propan-2-yl)oxy)-4-chlorophenyl)pyrimidin-2-yl)-4-(4-chlorophenyl)-1,2,3-thiadiazol-5-amine]	≥ 0.1
C[C@@H](Cn1cnnn1)Oc1cc(-c2cnc(Nc3n[nH]cc3Cl)nc2)ccc1Cl [Example 749, (S)-5-(3-((1-(1H-tetrazol-1-yl)propan-2-yl)oxy)-4-chlorophenyl)-N-(4-chloro-1H-pyrazol-3-yl)pyrimidin-2-amine]	0.01 to 0.1
C[C@@H](Cn1cnnn1)Oc1cc(-c2cnc(Nc3ncc(CO)n3C)nc2)ccc1Cl [Example 750, (S)-(2-((5-(3-((1-(1H-tetrazol-1-yl)propan-2-yl)oxy)-4-chlorophenyl)pyrimidin-2-yl)amino)-1-methyl-1H-imidazol-5-yl)methanol]	≥ 0.1

Same assay, conditions: Table 2; activity class for CaMKIIδ

Structure (SMILES)	IC50 [µM]
C[C@@H](CO)Cn1cc(Nc2ncc(-c3ccc(Cl)c(O[C@@H](C)Cn4cnnn4)c3)cn2)c(C(F)(F)F)n1 [Example 730, (R)-3-(4-((5-(3-(((S)-1-(1H-tetrazol-1-yl)propan-2-yl)oxy)-4-chlorophenyl)pyrimidin-2-yl)amino)-3-(trifluoromethyl)-1H-pyrazol-1-yl)-2-methylpropan-1-ol]	0.01 to 0.1
Cc1c(Nc2ncc(-c3ccc(Cl)c(O[C@@H](C)Cn4cnnn4)c3)cn2)cnn1C [Example 731, (S)-5-(3-((1-(1H-tetrazol-1-yl)propan-2-yl)oxy)-4-chlorophenyl)-N-(1,5-dimethyl-1H-pyrazol-4-yl)pyrimidin-2-amine]	0.01 to 0.1
